Experimental data from PubChem BioAssay (NCI).
Where “and” joins values, the source holds several entries; their conditions need not be identical. Equal values may be shown once.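 Protocol summary: plate cells (96-well), add compound at 5 concentrations, incubate 48 h, interpolate endpoints linearly. GI50: concentration for 50% inhibition of growth. TGI is the concentration that stops growth completely.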

Assays:
Assay in all cases: growth of human tumour cells (NCI), 48 h
A498 renal = test system: A498 renal
HOP-62 NSCLC = test system: HOP-62 NSCLC
HT29 colon = test system: HT29 colon
MOLT-4 leukemia = test system: MOLT-4 leukemia
NCI-H522 lung = test system: NCI-H522 lung
SK-MEL-5 melanoma = test system: SK-MEL-5 melanoma
SR leukemia = test system: SR leukemia
UACC-62 melanoma = test system: UACC-62 melanoma
NCI-H226 lung = test system: NCI-H226 lung
PC-3 prostate = test system: PC-3 prostate

| Structure (SMILES) | TGI (A498 renal) | TGI (HOP-62 NSCLC) | TGI (HT29 colon) | TGI (MOLT-4 leukemia) | TGI (NCI-H522 lung) | TGI (SK-MEL-5 melanoma) | TGI (SR leukemia) | TGI (UACC-62 melanoma) | TGI (NCI-H226 lung) | GI50 (A498 renal) | GI50 (HOP-62 NSCLC) | GI50 (HT29 colon) | GI50 (NCI-H226 lung) | GI50 (NCI-H522 lung) | GI50 (SK-MEL-5 melanoma) | GI50 (SR leukemia) | GI50 (UACC-62 melanoma) | GI50 (MOLT-4 leukemia) | GI50 (PC-3 prostate) | TGI (PC-3 prostate) |
| --- | --- | --- | --- | --- | --- | --- | --- | --- | --- | --- | --- | --- | --- | --- | --- | --- | --- | --- | --- | --- |
| CC(C)COC(=O)N1N=NC2C3CC(=O)C(O3)C21 (stereo not given) | > 100 µM | > 100 µM | > 100 µM | > 100 µM | > 100 µM | > 100 µM | > 100 µM | > 100 µM |  |  |  |  |  |  |  |  |  |  |  |  |
| CO[C@H](C(=O)O[C@H]1C(=O)N2CCC3CCC1C32C)c1ccccc1 (stereo not given in full) |  | > 100 µM | > 100 µM | > 100 µM | > 100 µM | > 100 µM | > 100 µM | > 100 µM | > 100 µM |  |  |  |  |  |  |  |  |  |  |  |
| Nc1nc2ccccc2c2[nH]c3ccccc3c12 | 2.42 µM | 2.44 µM | 1.93 µM |  | 2.14 µM | 3.01 µM | 4.8 µM | 27.3 µM | 37.2 µM | 1.16 µM | 1.13 µM | 0.509 µM | 9.74 µM | 0.901 µM | 1.64 µM | 0.64 µM | 13.6 µM |  |  |  |
| C[C@]12CC[C@H](OC(=O)Cc3ccc(N(CCCl)CCCl)cc3)CC1CC[C@@H]1C2CC[C@]2(C)NC(=O)CCC12 (stereo not given in full) | 43.5 µM |  | 3.79 µM | 15.6 µM | 25.4 µM | 32.5 µM |  | 21.4 µM | 69.6 µM |  |  |  |  |  |  |  |  |  |  |  |
| C[C@@]1([C@H](OC(=O)c2cccc3ccccc23)C(N)=O)CO1 | 34 µM | 7.29 µM | > 24 µM | > 100 µM | 6 µM | 5.75 µM |  | 2.24 µM | 5.9 µM | 16.2 µM | 0.978 µM | 1.05 µM | 1.46 µM |  | 2.01 µM |  | 0.452 µM | 0.187 µM | 3.2 µM | 22.8 µM |
| CC(=O)O[C@H]1CC[C@@]2(C)C(=CC[C@@H]3C2CC[C@]2(C)C(=O)NC(=O)CC32)C1 (stereo not given in full) | > 100 µM | > 100 µM | > 100 µM | > 100 µM | 86.2 µM | > 100 µM |  | > 100 µM | > 100 µM |  |  |  |  |  |  |  |  |  |  |  |
| CC1OC(OC23C(=O)CC(C)(O)CC2(O)C=CC2=C3C(=O)c3ccc(C4CC(OC5CCC(OC6CC(O)C(O)C(C)O6)C(C)O5)C(O)C(C)O4)c(O)c3C2=O)CCC1O (stereo not given) |  | 79.4 µM and 41.4 µM | 36.1 µM and 27.8 µM | > 100 µM | 3.83 µM and 3.5 µM | 33.3 µM and 29.7 µM | > 100 µM | 30 µM and 27.1 µM | 38.5 µM and 35.5 µM |  |  |  |  |  |  |  |  |  |  |  |
| CC(C)(C)n1nc(C2CC2)cc1NC(=O)Nc1ccc(Cl)cc1 | > 100 µM | > 100 µM | > 100 µM | > 100 µM | > 100 µM | > 100 µM |  | > 100 µM | > 100 µM |  |  |  |  |  |  |  |  |  |  | > 100 µM |
| Clc1cc2nc[nH]c2cc1Cl | > 100 µM | > 100 µM | > 100 µM | > 100 µM |  |  |  | > 100 µM | > 100 µM |  |  |  |  |  |  |  |  |  |  |  |
| CCOC(=O)C1Nc2ccc([N+](=O)[O-])cc2[C@H]2OCC[C@@H]12 (stereo not given in full) | > 100 µM | > 100 µM | > 100 µM | > 100 µM | > 100 µM | > 100 µM |  | > 100 µM | > 100 µM |  |  |  |  |  |  |  |  |  |  |  |
| C=CC1CC12C(=O)C1OC2(C)C2C(=O)c3c(O)cccc3C(=O)C12 (stereo not given) |  | > 100 µM | > 100 µM | > 100 µM | > 100 µM |  |  |  | > 100 µM |  | > 100 µM | 33.9 µM | 45.6 µM | 39.8 µM |  |  |  | 23.6 µM | 25.7 µM | 81.5 µM |
| COc1ccc(-c2cnc(SCC(=O)c3c(C)n(C)n(-c4ccccc4)c3=O)n2-c2ccc(OC)cc2)cc1 |  | > 50 µM | > 50 µM | > 50 µM | > 50 µM | > 50 µM |  | > 50 µM | > 50 µM |  | 28.9 µM | > 50 µM | > 50 µM | > 50 µM | 22.3 µM |  | > 50 µM | 12.6 µM | 40.1 µM | > 50 µM |
| Cc1cc(N(CCC#N)CCC#N)ccc1/C=C(\NC(=O)/C=C/c1ccccc1)NC(=O)Nc1ccccc1C | > 100 µM |  | > 100 µM | > 100 µM |  | > 100 µM |  | > 100 µM | > 100 µM |  |  |  |  |  |  |  |  |  |  |  |
| O=C(/C=C/c1ccc[nH]1)c1ccccc1 |  | > 100 µM | > 100 µM | > 100 µM | > 100 µM | > 100 µM | > 100 µM | > 100 µM | > 100 µM |  |  |  |  |  |  |  |  |  |  |  |
| Cc1ccc2oc(=O)cc(CC(=O)O)c2c1 | > 100 µM | > 100 µM | > 100 µM | > 100 µM | > 100 µM | > 100 µM |  | > 100 µM | > 100 µM |  |  |  |  |  |  |  |  |  |  |  |
| CCCCN1C(=O)C2c3[nH]c4ccccc4c3C3CCCCC3C2C1=O (mixture of isomers) |  | 19.4 µM | > 100 µM | 19.4 µM |  | 90.3 µM |  | 79.3 µM |  |  |  |  |  |  |  |  |  |  |  |  |
